In US20200164072A1, “NANOCOMPLEXES FOR REMOTELY-TRIGGERED GUEST MOLECULE RELEASE AND METHODS FOR FABRICATING THE SAME” (William Marsh Rice University, priority 2018, published 2020):

Tests used:
Experiment in all cases: LDH cytotoxicity assay after light-triggered release
Type in all cases: cell-based
[1] = test system: MDA-MB-231 breast cancer cells; conditions: pulsed laser-induced release (25 mW, 160 fs, 2 min) from NS@DNA1@DTX, FIG. 7A; 24 h
Method: (§1) Cellular cytotoxicity resulting from light-triggered release of DTX and LAP from both dsDNA and HSA nanohost molecules was evaluated. Cells were irradiated, according to one or more embodiments, with either a CW laser imparting 1.5 W of power or with a pulsed-laser using a Ti:Sapphire tunable laser operating at 250 kHz with an average power of 25 mW and 160-fs pulsed-laser power for 2 min.
(§2) After the guest molecules were released, each sample was treated at 37° C., 5% CO2 for a treatment period of 24 h to allow time for the released drug guest molecules to interact with the cells. Cell death was evaluated with a lactate dehydrogenase (LDH) cytotoxicity assay. Percent cytotoxicity values were calculated considering 10% cell death in the control experiment, NS @host with no laser treatment.

[2] = test system: RAW 264.7 macrophage cells; conditions: macrophages lack the HER2 receptor
Method: as §1, §2
(§3) LAP was released from both an NS @DNA nanohost control and an NS @HSA nanohost in both SKBR3 breast cancer cells and RAW 264.7 macrophage cells.

[3] = test system: SKBR3 breast cancer cells; conditions: released LAP; HER2 expressing breast cancer cells vs noncancerous cells
Method: as §1, §2, §3

SMILES | cell death (LDH) [1] | cytotoxicity in macrophages [2] | selectivity of cell death [3]
CC(=O)O[C@@]12CO[C@@H]1C[C@H](O)[C@@]1(C)C(=O)[C@H](O)C3=C(C)[C@@H](OC(=O)[C@H](O)[C@@H](NC(=O)OC(C)(C)C)c4ccccc4)C[C@@](O)([C@@H](OC(=O)c4ccccc4)[C@H]21)C3(C)C [DTX, docetaxel] | No increased cell death | – | –
CS(=O)(=O)CCNCc1ccc(-c2ccc3ncnc(Nc4ccc(OCc5cccc(F)c5)c(Cl)c4)c3c2)o1 [LAP, lapatinib] | – | does not cause cytotoxicity | selectively induces cell death in HER2 expressing breast cancer cells, without affecting noncancerous cells
